Data: patent US20160367515A1, “Improved delivery of poorly water soluble drugs with aphafetoprotein stabilized with metal ions” (Oy Safemed Ltd., priority 2013, published 2016)

Experiments:
[1] = system: human hepatoma HepG2 cells; assay: MTS cell viability assay, hepatoma HepG2 cells; type: cell-based; conditions: HepG2, 48 h
Experimental: Tumor cell lines: human mammary carcinoma MCF-7, human hepatoma HepG2, and rat glioma C6—were originated from the American Type Culture Collection (ATCC). All cell lines were maintained in the complete DMEM or RPMI-1640 media supplemented with L-glutamine and 10% fetal calf serum (FCS) in humidified 5% CO2 atmosphere. For a passage, adherent cells were incubated in the EDTA/0.25% trypsin solution, then washed and plated out for experiments. Prior to addition of reagents, cells were washed with the fresh media with 2% FCS, plated onto 96-well polystyrene plates (Costar, USA) at a density of 3×10^3 cell/well in 180 μL of complete medium with 2% FCS and incubated for 2 h. […] Cell proliferation was assessed by [^3H]-thymidine (^3H-TdR) incorporation assay. […] Cells were harvested and the ^3H-TdR incorporation was measured by using the liquid scintillation counter LKB 1209 Rackbeta (LKB, Sweden). Results were expressed as mean counts per minute (cpm)±standard error of the mean of triplicate cultures or as a percentage of ^3H-TdR incorporation in the experimental cell cultures relatively to the untreated control, as described (Semenkova et al., Tumour Biol. 1997; 18: 261-74).
Cell viability was assessed by the Promega CellTiter 96 AQueous Non-Radioactive Cell Proliferation MTS assay (Promega, USA) according to manufacturer's instructions. […]

[2] = system: breast cancer cells MCF-7; assay: Microscopic evaluation (DAPI, cell count by ImageJ) of viability and apoptosis of MCF-7 cells; type: cell-based, human; conditions: MCF-7, 48 h
Experimental: Concentrations of the compounds were: rhAFP: 3.0 μM, Ptx: 10 μM. Incubation time was 48 h. Patterns on the top (A): magnification ×100; bottom (B): magnification ×400. Cell nuclei were stained with DAPI and visualized with a fluorescent microscope Axioplan, Zeiss equipped with corresponding color filter kits. Apoptotic nuclei at s panel B are shown by arrows. […] Total number of cells in the control wells was taken as 100%. The average data for five wells±mean square deviation are shown.
rhAFP/Ptx equimolar complex was also tested for its growth suppressive activity against tumor cells in vitro. […] Apoptotic cells with condensed chromatin due to rhAFP/Ptx treatments are shown at FIG. 3B with arrows.
MCF-7 cells were seeded onto the microscopic plates Lab-Tek™ Chamber Slides (Thermo Fisher Scientific-Nunc, Germany) for 48 h to reach of 80% confluence and thereafter were subjected to 48-h treatments with Ptx dissolved in DMSO (10 nM), Zn-rhAFP (1.4 μM), or their combination Zn-rhAFP/Ptx (1.4 μM/10 nM). Similarly, the tests had been performed with non-glycosylated rhAFPo species. Thereafter the cells were fixed with 100% ice-cold acetone and stained with DAPI (Molecular probes, USA). Control cells were incubated without additions. […] The quantity of the cells in the various experimental wells in the selected fields of view was assessed by using ImageJ software. […]

NF-κB p65 = assay: Immunofluorescence of activated NF-κB p65 nuclear translocation in MCF-7 cells; type: cell-based, human; conditions: MCF-7, 2 h treatment
Experimental: The cells were incubated with paclitaxel (10 μM) with addition of Zn-rhAFP (3.0 μM) and/or curcumin (3.0 μM) for 2 h and then assessed for localization of p65 by immunocytochemistry. Activated […] (p65) was detected by treatment of the cells with phospho […] p65 rabbit polyclonal antibody (Cell signaling technologies, USA) followed by secondary goat anti-rabbit Ab-Alexa594 red (Molecular Probes, USA). Cells were visualized at magnification ×400 by fluorescent microscope Axioplan; Zeiss (Germany) equipped with corresponding color filter kits.
The relative amount of p65 in the cytosol and nucleus of the cells was assessed by ImageJ software and was taken as 100% in the control (cytosol+nucleus). Total amount of activated p65 in control untreated cells was taken as 100%. The experimental data are represented as percentage of control±SD from three independent calculations in various observation fields.
MCF-7 cells were seeded on the microscopic plates Lab-Tek™ Chamber Slides (Thermo Fisher Scientific-Nunc, Germany) and cultivated at 37° C. at 5% CO2 atmosphere for 48 h to allow cell adaptation to reach 80% confluence. To test effects of chemotherapeutic preparations on the activation and translocation of NF-κB, cells were treated for 2 h with Ptx (10 nM), curcumin (30 μM); Zn-rhAFP (1.4 μM), or their combination Zn-rhAFP/Ptx/Cur, after which they were fixed with 100% ice-cold acetone. Control cells were incubated without additions and their NF-κB content was taken as 100%. Activated NF-κB was detected by treatment of the cells with phospho NF-κB p65 rabbit polyclonal antibody (Cell signaling technologies, USA) followed by the secondary goat anti-rabbit antibodies Ab-Alexa594 (Molecular Probes, USA). Nuclei were visualized by staining with DAPI (Molecular probes, USA). Cells were visualized at magnification ×400 by fluorescent microscope Axioplan (Zeiss, Germany) equipped with corresponding color filter kits. Distribution throughout the cell of the activated p65 was assessed by the ImageJ software and was taken as 100% in the control samples (cytosol+nucleus).

[3] = system: normal CBA mice splenocytes; assay: Unspecific toxicity against normal splenocytes, trypan blue staining; conditions: 48 h, standalone
Experimental: Zn-rhAFP was prepared in a molecular ratio Zn:rhAFP=4:1. Viable cells were visualized by trypan blue staining. The data are expressed as percentage of viable cells in experimental cell cultures relative to untreated control. Mean of three independent experiments is shown.
Viable cells were visualized by trypan blue staining.

CC(=O)O[C@H]1C(=O)[C@@]2(C)[C@H]([C@H](OC(=O)c3ccccc3)[C@]3(O)C[C@H](OC(=O)[C@H](O)[C@@H](NC(=O)c4ccccc4)c4ccccc4)C(C)=C1C3(C)C)[C@]1(OC(C)=O)CO[C@@H]1C[C@@H]2O [Ptx, paclitaxel] was tested, and the “sensitivity of HepG2 cells (chemoresistance)” value [1] was “complete resistance”, the viable cell count ([2]; FIG. 3: rhAFP 3.0 μM, Ptx 10 μM) was 54 % of control and the cell death ([2]; Ptx 10 nM, Zn-rhAFP 1.4 μM) was 55%. For the same compound, the “effect on activated p65 (RelA) in the cell nucleus” value (NF-κB p65) was “significant enhance of activated p65 localized in the nuclear region” and the “cytotoxic effect against normal splenocytes” value [3] was “strong dose-dependent growth suppression”.
